According to patent publication US5358712A, “Radiopharmaceutical agents for the detection of Alzheimer's disease” (Regents of the University of Minnesota, priority 1993, dated 1994):
Where two headings read alike, the source gives them in different places. Values belong to the compound of their own block, whether it stands above or below them.

Assays:
[1] = Blocking experiments: inhibition of radiotracer accumulation in the rat by coadministered compound; format: in vivo, rat (male Wistar); conditions: rat, iv, rat, iv, 60 min
Description: (§1) *Animals in group 1 received an iv injection of (+)4-[^125 l]HIPP
(§2) only. For groups 2, 3, and 4, the radiotracer was coadministered with the
(§3) hydrochlorides of (+)7 (0.53 mg/kg), (-)7 (0.53 mg/kg) and vesamicol (0.3
(§4) Four groups of male Wistar rats (n=3) were used in these experiments. All animals received an iv dose of 8-10 μCi of the radiotracer in 0.1 ml of 50% aq. ethanol. Additionally, in groups 2, 3 and 4, the radiotracer was coadministered with (+)-HBrPP.HCl(1.3 μmol/kg), (-)-HBrPP.HCl(1.3 μmol/kg) and (dl)-vesamicol hydrochloride (1.1 μmol/kg), respectively. At 60 min. post-injection, blood was collected by cardiac puncture and the animals sacrificed as described above. The data was analyzed as outlined above.
(§5) NOTE: The dose of radiotracer injected was 5-7 mCi. Group I was the
(§6) control, injected with the radiotracer only. Group II included the
(§7) simultaneous injection of "cold"(dl)3-HIPP (HCl) (0.53 mg/kg). Group III
(§8) included the simultaneous injection of (dl) vesamicol (HCl) (0.31 mg/kg).
(§9) All rats were sacrificed at one hour postinjection.
(§10) NOTE: Group I was the control, injected with the radiotracer only. Group
(§11) II included the simultaneous injection of "cold"(dl)3-HIPP (HCl) (0.53
(§12) mg/kg). Group III included the simultaneous injection of (dl) vesamicol
(§13) hydrochloride (0.31 mg/kg). The dose of radiotracer was 8-9 μCi. All
(§14) rats were sacrificed at one hour postinjection.
(§15) NOTE: Group I received (+)[^125 l]13 only. Group II received the (+)
(§16) radiotracer coinjected with 0.31 mg/kg (dl)vesamicol hydrochloride. Group
(§17) III received (-)[^125 l]13 only. Group IV received the (-) radiotrace
(§18) coinjected with 0.31 mg/kg (dl)vesamicol hydrochloride. All animals were
(§19) sacrificed at one hour postinjection. The dose of radiotracer injected pe

[2] = Tissue distribution (biodistribution) of radioiodinated compound in the rat; conditions: rat; for Brain: Blood Ratio / Heart: Blood Ratio / radioactivity in blood / radioactivity in brain / radioactivity in heart / radioactivity in kidney / radioactivity in liver / radioactivity in lung / radioactivity in muscle / radioactivity in spleen: iv
[3] = test system: vesamicol receptor; experiment: Blocking experiments: inhibition of radiotracer accumulation in the rat by coadministered compound; format: in vivo, rat (male Wistar); conditions: rat, iv, 60 min
Description: as §1, §2, §3, §4, §5, §6, §7, §8, §9, §10, §11, §12, §13, §14, §15, §16, §17, §18, §19

[4] = + (dl)-vesamicol HCl 0.3 (Table 3) or 0.31 mg/kg

SMILES: OC(Cc1ccc([125I])cc1)CN1CCC(c2ccccc2)CC1 (single isomer, unassigned; (-)) [(-)-4-[^125 l]HIPP, 2-Hydroxy-3-(4-iodophenyl)-1-(4-phenylpiperidyl)propane]
- tissue uptake at 1 h ([1]; blood, + (+)-7 HCl 0.53 mg/kg, read-out: radioactivity in blood): 0.05 %ID/g
- tissue uptake at 1 h ([1]; blood, + (-)-7 HCl 0.53 mg/kg, read-out: radioactivity in blood): 0.04 %ID/g
- tissue uptake at 1 h ([1]; blood, + (dl)-vesamicol HCl 0.3 (Table 3) or 0.31 mg/kg, read-out: radioactivity in blood): 0.02 %ID/g
- tissue uptake at 1 h ([1]; blood, radiotracer only (control), read-out: radioactivity in blood): 0.02 %ID/g
- tissue uptake at 1 h ([1]; brain, + (+)-7 HCl 0.53 mg/kg, read-out: radioactivity in brain): 0.28 %ID/g
- tissue uptake at 1 h ([1]; brain, + (-)-7 HCl 0.53 mg/kg, read-out: radioactivity in brain): 0.29 %ID/g
- tissue uptake at 1 h ([1]; brain, + (dl)-vesamicol HCl 0.3 (Table 3) or 0.31 mg/kg, read-out: radioactivity in brain): 0.31 %ID/g
- tissue uptake at 1 h ([1]; brain, radiotracer only (control), read-out: radioactivity in brain): 0.93 %ID/g
- tissue uptake at 1 h ([1]; heart, + (+)-7 HCl 0.53 mg/kg, read-out: radioactivity in heart): 0.12 %ID/g
- tissue uptake at 1 h ([1]; heart, + (-)-7 HCl 0.53 mg/kg, read-out: radioactivity in heart): 0.13 %ID/g
- tissue uptake at 1 h ([1]; heart, + (dl)-vesamicol HCl 0.3 (Table 3) or 0.31 mg/kg, read-out: radioactivity in heart): 0.13 %ID/g
- tissue uptake at 1 h ([1]; heart, radiotracer only (control), read-out: radioactivity in heart): 0.79 %ID/g
- tissue uptake at 1 h ([1]; kidney, + (+)-7 HCl 0.53 mg/kg, read-out: radioactivity in kidney): 0.46 %ID/g
- tissue uptake at 1 h ([1]; kidney, + (-)-7 HCl 0.53 mg/kg, read-out: radioactivity in kidney): 0.42 %ID/g
- tissue uptake at 1 h ([1]; kidney, + (dl)-vesamicol HCl 0.3 (Table 3) or 0.31 mg/kg, read-out: radioactivity in kidney): 0.35 %ID/g
- tissue uptake at 1 h ([1]; kidney, radiotracer only (control), read-out: radioactivity in kidney): 1.9 %ID/g
- tissue uptake at 1 h ([1]; liver, + (dl)-vesamicol HCl 0.3 (Table 3) or 0.31 mg/kg, read-out: radioactivity in liver): 4.18 %ID/g
- tissue uptake at 1 h ([1]; liver, radiotracer only (control), read-out: radioactivity in liver): 2.68 %ID/g
- tissue uptake at 1 h ([1]; lung, + (+)-7 HCl 0.53 mg/kg, read-out: radioactivity in lung): 1.64 %ID/g
- tissue uptake at 1 h ([1]; lung, + (-)-7 HCl 0.53 mg/kg, read-out: radioactivity in lung): 1.04 %ID/g
- tissue uptake at 1 h ([1]; lung, + (dl)-vesamicol HCl 0.3 (Table 3) or 0.31 mg/kg, read-out: radioactivity in lung): 0.95 %ID/g
- tissue uptake at 1 h ([1]; lung, radiotracer only (control), read-out: radioactivity in lung): 3.63 %ID/g
- tissue uptake at 1 h ([1]; muscle, + (+)-7 HCl 0.53 mg/kg, read-out: radioactivity in muscle): 0.07 %ID/g
- tissue uptake at 1 h ([1]; muscle, + (-)-7 HCl 0.53 mg/kg, read-out: radioactivity in muscle): 0.08 %ID/g
- tissue uptake at 1 h ([1]; muscle, + (dl)-vesamicol HCl 0.3 (Table 3) or 0.31 mg/kg, read-out: radioactivity in muscle): 0.06 %ID/g
- tissue uptake at 1 h ([1]; muscle, radiotracer only (control), read-out: radioactivity in muscle): 0.21 %ID/g
- tissue uptake at 1 h ([1]; spleen, + (+)-7 HCl 0.53 mg/kg, read-out: radioactivity in spleen): 0.57 %ID/g
- tissue uptake at 1 h ([1]; spleen, + (-)-7 HCl 0.53 mg/kg, read-out: radioactivity in spleen): 0.57 %ID/g
- tissue uptake at 1 h ([1]; spleen, + (dl)-vesamicol HCl 0.3 (Table 3) or 0.31 mg/kg, read-out: radioactivity in spleen): 0.6 %ID/g
- tissue uptake at 1 h ([1]; spleen, radiotracer only (control), read-out: radioactivity in spleen): 1.42 %ID/g

- decrease of concentration in the brain ([2]; 3 hours post-injection vs initial, listed as (-)-[^125 I]13): 85%
- initial accumulation in the rat brain ([2]; initial, listed as (-)-[^125 I]13): 1.69 % of the injected dose
- Brain: Blood Ratio ([2]; 5 min): 8.7
- Heart: Blood Ratio ([2]; 5 min): 6.2
- radioactivity in blood ([2]; 5 min): 0.13 % dose/g
- radioactivity in brain ([2]; 5 min): 1.08 % dose/g
- radioactivity in heart ([2]; 5 min): 0.77 % dose/g
- radioactivity in kidney ([2]; 5 min): 3.38 % dose/g
- radioactivity in liver ([2]; 5 min): 1.72 % dose/g
- radioactivity in lung ([2]; 5 min): 5.05 % dose/g
- radioactivity in muscle ([2]; 5 min): 0.32 % dose/g
- radioactivity in spleen ([2]; 5 min): 0.70 % dose/g
- Brain: Blood Ratio ([2]; 60 min): 11.1
- Heart: Blood Ratio ([2]; 60 min): 2.0
- radioactivity in blood ([2]; 60 min): 0.06 % dose/g
- radioactivity in brain ([2]; 60 min): .70 % dose/g
- radioactivity in heart ([2]; 60 min): 0.13 % dose/g
- radioactivity in kidney ([2]; 60 min): 1.47 % dose/g
- radioactivity in liver ([2]; 60 min): 1.90 % dose/g
- radioactivity in lung ([2]; 60 min): 0.54 % dose/g
- radioactivity in muscle ([2]; 60 min): 0.11 % dose/g
- radioactivity in spleen ([2]; 60 min): 0.57 % dose/g
- Brain: Blood Ratio ([2]; 180 min): 5.5
- Heart: Blood Ratio ([2]; 180 min): 0.9
- radioactivity in blood ([2]; 180 min): 0.06 % dose/g
- radioactivity in brain ([2]; 180 min): 0.35 % dose/g
- radioactivity in heart ([2]; 180 min): 0.05 % dose/g
- radioactivity in kidney ([2]; 180 min): 0.74 % dose/g
- radioactivity in liver ([2]; 180 min): 0.98 % dose/g
- radioactivity in lung ([2]; 180 min): 0.24 % dose/g
- radioactivity in muscle ([2]; 180 min): 0.05 % dose/g
- radioactivity in spleen ([2]; 180 min): 0.23 % dose/g
- radioactivity in heart [3, 4]: 0.08 % dose/g of tissue
- Brain: Blood Ratio [3, 4]: 1.61
- Heart: Blood Ratio [3, 4]: 0.99
- radioactivity in blood [3, 4]: 0.08 % dose/g of tissue
- radioactivity in brain [3, 4]: 0.13 % dose/g of tissue
- radioactivity in kidney [3, 4]: 0.38 % dose/g of tissue
- radioactivity in liver [3, 4]: 1.44 % dose/g of tissue
- radioactivity in lung [3, 4]: 0.34 % dose/g of tissue
- radioactivity in muscle [3, 4]: 0.07 % dose/g of tissue
- radioactivity in spleen [3, 4]: 0.27 % dose/g of tissue
- Brain: Blood Ratio ([3]; radiotracer only (control)): 7.41
- Heart: Blood Ratio ([3]; radiotracer only (control)): 1.31
- radioactivity in blood ([3]; radiotracer only (control)): 0.10 % dose/g of tissue
- radioactivity in brain ([3]; radiotracer only (control)): 0.73 % dose/g of tissue
- radioactivity in heart ([3]; radiotracer only (control)): 0.13 % dose/g of tissue
- radioactivity in kidney ([3]; radiotracer only (control)): 1.26 % dose/g of tissue
- radioactivity in liver ([3]; radiotracer only (control)): 1.66 % dose/g of tissue
- radioactivity in lung ([3]; radiotracer only (control)): 0.66 % dose/g of tissue
- radioactivity in muscle ([3]; radiotracer only (control)): 0.11 % dose/g of tissue
- radioactivity in spleen ([3]; radiotracer only (control)): 0.61 % dose/g of tissue
SMILES: OC(CN1CCC(c2ccccc2)CC1)c1ccc([125I])cc1 (single isomer, unassigned; (-)) [(-)-[^125 l]13] [1-(4-Iodophenyl)-2-(4-phenylpiperidinyl)ethanol]
